pIC50: −log10 of the molar value. Where a name gives a salt, the structure may show the parent alone.
Columns and labels:
PDGFR-β = biological target: T1, PDGFR-β (Homo sapiens, UniProt P09619); experiment: Biochemical PDGFR assay (ELISA, PDGFR-β expressing NIH 3T3 cell lysate); conditions: read-out: bio PDGF IC50
T1 construct: host or cells: NIH 3T3
In short: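 Phosphorylation was read by ELISA (anti-phosphotyrosine serum, peroxidase secondary, ABTS at 410 nm) after a 30 min room-temperature reaction with 20 μM ATP, EDTA-stopped. Kinase was lysate-derived PDGFR-β (NIH 3T3) immobilised via 28D4C10 antibody, compound added 30 min before ATP.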

[1] = biological target: Myc-GyrB-FGFR fusion protein (Homo sapiens, UniProt P11362); experiment: Biochemical FGFR assay (ELISA); conditions: read-out: bio fgfR1 IC50
Chain of Myc-GyrB-FGFR fusion protein (P11362 478-767 limits assumed): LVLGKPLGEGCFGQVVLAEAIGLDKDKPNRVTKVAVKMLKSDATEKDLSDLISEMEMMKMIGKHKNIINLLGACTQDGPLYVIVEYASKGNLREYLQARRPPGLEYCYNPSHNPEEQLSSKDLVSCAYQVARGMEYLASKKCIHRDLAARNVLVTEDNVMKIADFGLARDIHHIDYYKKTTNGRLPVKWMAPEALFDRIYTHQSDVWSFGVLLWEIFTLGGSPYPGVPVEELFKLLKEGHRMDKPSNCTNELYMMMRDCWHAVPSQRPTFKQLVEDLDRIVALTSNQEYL
Method: This assay measures in vitro kinase activity of the Myc-GyrB-FGFR fusion protein using ELISA.
Materials and Reagents • 1. HNTG
PBS (Dulbecco's Phosphate-Buffered Saline, Gibco Catalog # 450-1300EB). • 3. Blocking Buffer. • 4. Kinase Buffer.
Working solution: 100 mM in ethanol. • 6.
ABTS Solution. • 10. Hydrogen peroxide 30% solution ( Fisher Catalog # H325). • 11. ABTS/H2O2. • 12. 0.2 M HCl. • 13.
Prepare 1.0 mM solution in MilliQ H2O, adjust pH to 7.2 with HCl. • 14.
Prepare 5 M solution in MilliQ H2O. • 15. MgCl, (Fisher Cat. No. M33-500).
Prepare 1 M solution in MilliQ H2O. • 16. HEPES (Fisher Cat. No. BP310-500).
Prepare 1 M solution in MilliQ H2O, adjust pH to 7.5, sterile filter. • 17. TBST Buffer. • 18. Sodium Carbonate Buffer (Fisher Cat. No. S495).
Prepare 0.1 M solution in MilliQ H2O, adjust pH to 9.6 with NaOH, filter. • 19. Dithiothreitol (DTT, Fisher Cat. No. BP172-25).
Prepare 0.5 mM working solution in MilliQ H2O just prior to-use. Store at −20° C. until used, discard any leftover. • 20. MnCl2. • 21. Triton X-100. • 22. Goat α-Rabbit IgG (Cappel). • 23. Affinity purified Rabbit α GST GyrB (Biochemistry Lab. SUGEN, Inc.).
All of the following steps are conducted at room temperature unless otherwise indicated. • 1. Coat Corning 96-well ELISA plates with 2 μg Goat α-Rabbit antibody per well in Carbonate Buffer such that total well volume is 100 μl. Store overnight at 40° C. • 2. Remove unbound Goat a-Rabbit antibody by inverting plate to remove liquid. Pat plate on a paper towel to remove excess liquid and bubbles • 3.. Add 150 μl Blocking Buffer (5% Low Fat Milk in PBS) to each well. Incubate while shaking on a micro-titer plate shaker for 30 min. • 4. Wash 4× with TBST. Pat plate on a paper towel to remove excess liquid and bubbles. • 5. Add 0.5 μg Rabbit α-GyrB antibody per well. Dilute antibody in DPBS to a final volume of 100 μl per well. Incubate with shaking on a micro-titer plate shaker at room temperature for 1 hour. • 6. Wash 4× with TBST as described in step 4. • 7. Add 2 μg COS/FGFR cell lysate (Myc-GyrB-FGFR source) in HNTG to each well to give a final volume of 100 μl per well. Incubate with shaking on a micro-titer plate shaker for 1 hour. • 8. Wash 4× with TBST as described in step 4. • 9. Add 80 μl of 1× kinase buffer per well. • 10. […] Transfer 10 μ l of diluted test compound solution and control wells from polypropylene plate wells to the corresponding ELISA plate wells, incubate with shaking on a micro-titer plate shaker for 20 minutes. • 12. Add 10 μl of 70 μM ATP diluted in kinase buffer to positive control and test wells (Final ATP concentration is 7 EM/well). Add 10 μl 1× kinase buffer to negative control wells. Incubate with shaking on a micro-titer plate shaker for 15 min. • 13. Stop kinase reaction by adding 5 μl 0.5 M EDTA to all wells. • 14. Wash 4× with TBST as described in step 4. • 15. Add 100 μl biotin conjugated α-phosphotyrosine mab (b4G10) diluted in TBST to each well. Incubate with shaking on a micro-titer plate shaker for 30 minutes. • 16. Prepare Vectastain ABC reagent. […] Mix by inverting tube several times. Add 1 drop reagent B and mix again. • 17. Wash 4× with TBST as described in step 4. • 18. Add 100 μl ABC HRP reagent to each well. Incubate with shaking on a micro-titer plate shaker for 30 minutes. • 19. Wash 4× with TBST as described in step 4. • 20. Add 100 μl of ABTS/H2O2 solution to each well. • 22. Incubate 5 to 15 minutes with shaking. Remove any bubbles. • 23. If necessary stop reaction by adding 1 00 μl of 0.2M HCl/well. • 24.

src protein kinase = biological target: T2, src protein kinase (Gallus gallus, UniProt P00523); experiment: Biochemical SRC assay (phosphorylation of biotinylated peptide); conditions: read-out: bio src IC50
T2 construct: host or cells: Schizosaccharomyces pombe SP200
Method: This assay is used to determine src protein kinase activity measuring phosphorylation of a biotinylated peptide as the readout.
Yeast transformed with src (Sugen, Inc., Redwood City, Calif.). • b. Cell lysates: Yeast cells expressing src are pelleted, washed once with water, re-pelleted and stored at −80° C. until use. • c. N-terminus biotinylated [sequence] is prepared by standard procedures well known to those skilled in the art. • d. DMSO: Sigma, St. Louis, Mo. • e. […] Vecastain ELITE ABC reagent: Vector, Burlingame, Calif. • h. […] S. Pombe strain SP200 (h-s leul.32 ura4 ade210) is grown as described and transformations are pRSP expression plasmids are done by the lithium acetate method (Superti-Furga, supra). Cells are grown in the presence of 1 μM thiamine to repress expression from the nmtl promoter or in the absence of thiamine to induce expression. • i. […] Turbo TMB-ELISA peroxidase substrate: Pierce Chemical.
Buffer Solutions • a. PBS (Dulbecco's Phosphate-Buffered Saline): GIBCO PBS, GIBCO Cat. #450-1300EB. • b. Blocking Buffer: 5% Non-fat milk (Carnation) in PBS. • c. Carbonate Buffer: Na2CO4 from Fischer, Cat. # S495, make up 100 mM stock solution. • d. Kinase Buffer: 1.0 ml (from 1M stock solution) MgCl2, 0.2 ml (from a 1M stock solution) MnCl2, 0.2 ml (from a 1M stock solution) DTT, 5.0 ml (from a 1M stock solution) HEPES, 0.1 ml TX-100, bring to 10 ml total volume with MilliQ H2O. • e. […] NaCl: Fischer Cat. # S271-10, Make up 5M stock solution with MilliQ H2O. • i. […] MgCl2: Fischer Cat. # M33-500, make up 1M stock solution with MilliQ H2O. • k. […] MnCl2: Fischer Cat. # M87-100, make up 1M stock solution with MilliQ H2O. • n. DTT: -Fischer Cat. # BP172-5. • o. […] Kinase Reaction Mixture: Amount per assay plate (100 wells): 1.0 ml Kinase Buffer, 200 λg GST-ζ, bring to final volume of 8.0 ml with MilliQ H2O. • q. […] Then add 1 drop of reagent B. Put tube on orbital shaker at room temperature and mix for 30 minutes.
Preparation of src Coated ELISA Plate. • 1. Coat ELISA plate with 0.5 μg/well anti-src mab in 100 μl of pH 9.6 sodium carbonate buffer, hold at 40° C. overnight. • 2. Wash wells once with PBS. • 3. […] Wash plate 5× with PBS. • 5. Add 10 μg/well of src transformed yeast lysates diluted in Lysis Buffer (0.1 ml total volume per well). (Amount of lysate may vary between batches.) Shake plate for 20 minutes at room temperature.
Preparation of Phosphotyrosine Antibody-coated ELISA Plate. • 1. 4G10 plate: coat 0.5 μg/well 4G10 in 100 μl PBS overnight at 4° C. and block with 150 μl of 5% milk in PBS for 30 minutes at room temperature.
Kinase Assay Procedure. • 1. Remove unbound proteins from plates and wash plates 5× with PBS. • 2. […] Wash plate 5× with TBST. • 10. Incubate with Vectastain ELITE ABC reagent (100 μl/well) for 30 min. at room temperature. • 11. Wash the wells 5× with TBST. • 12. Develop with Turbo TMB.

flkGST = biological target: T3, flkGST (Homo sapiens, UniProt P35968); experiment: bio flkGST assay; assay type: biochemical
T3 construct: GST
T3 sequence (P35968 786-1356 limits assumed): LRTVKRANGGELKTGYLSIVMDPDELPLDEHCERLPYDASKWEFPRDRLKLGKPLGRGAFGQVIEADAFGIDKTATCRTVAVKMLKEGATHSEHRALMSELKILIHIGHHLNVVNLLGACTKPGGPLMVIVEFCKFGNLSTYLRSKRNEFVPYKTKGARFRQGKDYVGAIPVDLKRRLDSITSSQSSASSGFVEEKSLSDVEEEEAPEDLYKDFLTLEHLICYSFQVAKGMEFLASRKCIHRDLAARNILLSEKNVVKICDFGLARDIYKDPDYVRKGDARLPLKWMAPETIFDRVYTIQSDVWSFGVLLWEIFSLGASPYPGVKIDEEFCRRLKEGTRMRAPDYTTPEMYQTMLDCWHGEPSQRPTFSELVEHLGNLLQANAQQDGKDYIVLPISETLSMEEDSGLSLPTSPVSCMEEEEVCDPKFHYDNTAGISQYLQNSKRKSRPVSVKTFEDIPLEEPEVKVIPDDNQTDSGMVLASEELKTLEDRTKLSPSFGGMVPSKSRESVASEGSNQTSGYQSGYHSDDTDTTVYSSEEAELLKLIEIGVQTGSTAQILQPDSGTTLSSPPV

T1 sequence (P09619 33-1106): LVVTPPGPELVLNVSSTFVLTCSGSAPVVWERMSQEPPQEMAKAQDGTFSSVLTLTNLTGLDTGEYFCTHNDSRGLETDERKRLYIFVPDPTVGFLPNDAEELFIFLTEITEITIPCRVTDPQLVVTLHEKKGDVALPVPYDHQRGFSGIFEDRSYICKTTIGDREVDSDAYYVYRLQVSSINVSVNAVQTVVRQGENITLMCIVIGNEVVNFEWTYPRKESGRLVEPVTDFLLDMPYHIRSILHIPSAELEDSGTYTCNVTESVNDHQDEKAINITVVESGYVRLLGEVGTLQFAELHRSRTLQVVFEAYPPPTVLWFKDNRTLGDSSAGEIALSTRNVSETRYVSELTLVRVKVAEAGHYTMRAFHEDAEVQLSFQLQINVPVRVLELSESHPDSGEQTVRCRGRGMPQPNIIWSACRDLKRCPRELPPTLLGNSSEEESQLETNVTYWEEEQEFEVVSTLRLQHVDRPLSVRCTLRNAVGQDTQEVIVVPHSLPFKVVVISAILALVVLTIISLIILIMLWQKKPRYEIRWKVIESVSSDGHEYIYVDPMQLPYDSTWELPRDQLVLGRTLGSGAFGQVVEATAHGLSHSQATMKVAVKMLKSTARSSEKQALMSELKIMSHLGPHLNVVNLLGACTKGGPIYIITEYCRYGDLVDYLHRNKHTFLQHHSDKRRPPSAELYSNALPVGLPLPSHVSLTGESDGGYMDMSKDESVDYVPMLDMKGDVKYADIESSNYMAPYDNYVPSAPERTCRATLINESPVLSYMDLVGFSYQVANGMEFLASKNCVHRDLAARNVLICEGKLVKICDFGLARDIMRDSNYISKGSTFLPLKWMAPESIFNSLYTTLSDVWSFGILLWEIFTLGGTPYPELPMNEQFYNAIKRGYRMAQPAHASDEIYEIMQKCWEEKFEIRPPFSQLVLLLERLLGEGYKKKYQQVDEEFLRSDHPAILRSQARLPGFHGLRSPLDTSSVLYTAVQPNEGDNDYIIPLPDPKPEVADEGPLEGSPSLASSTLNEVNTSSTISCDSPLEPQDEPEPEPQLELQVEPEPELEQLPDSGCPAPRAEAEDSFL

| SMILES | pIC50 (PDGFR-β) | pIC50 [1] | pIC50 (src protein kinase) | pIC50 (flkGST) |
| --- | --- | --- | --- | --- |
| CNS(=O)(=O)c1ccc2c(c1)C(=Cc1[nH]c3ccccc3c1C)C(=O)N2 (racemic) [Example 154, 3-(3-Methyl-1H-indol-2-ylmethylene)-2-oxo-2,3-dihydro-1H-indole-5-sulfonic acid methylamide] | < 4.00 | < 4.70 | < 4.00 |  |
| Cc1cc(CCC(=O)O)c(/C=C2\C(=O)Nc3cc(-c4ccc(F)cc4)ccc32)[nH]1 [Example 107, 3-{2-[6-(4-Fluorophenyl)-2-oxo-1,2-dihydroindol-3-ylidenemethyl]-5-methyl-1H-pyrrol-3-yl}propionic acid] | > 6.11 | 5.21 |  | 5.67 |
| Cc1c(/C=C2\C(=O)Nc3ccc(C(=O)O)cc32)[nH]c2ccccc12 [Example 156, 3-(3-Methyl-1H-indol-2-ylmethylene)-2-oxo-2,3-dihydro-1H-indole-5-carboxylic acid (piperidine salt)] | 5.08 | 5.44 | 6.82 |  |
